The term EC50 denotes the midpoint of the concentration-response curve.

A short description of the experiment: GPR120 pERK AlphaScreen SureFire Assay: The human and mouse GPR120-mediated intracellular phosphorylated ERK assays were established using CHOA12 cells stably transfected with the short form of human or mouse GPR120 receptor. Cells were cultured in growth medium consisting of F-12 media (Invitrogen Cat. #11765) with 5% Charcoal/Dextran FBS (Invitrogen Cat. #12676-029), 500 μg/mL GENETICIN® (Life Technologies Cat. #10131-027) and 250 μg/mL Zeocin (Invitrogen Cat. #R250-01). Cells were cryo preserved at a concentration of 2×10^7 cells/mL, in 90% Charcoal/Dextran FBS and 10% DMSO, and frozen in liquid nitrogen at a low passage number.For the pERK assay, 2×10^7 cells/mL cryopreserved human and mouse cells were thawed rapidly in a 37° C. water bath and added to a T-225 flask containing 50 mL growth medium. The flasks were placed in a tissue culture incubator overnight (37° C., 5% CO2). The next day, cells were harvested with trypsin (Gibco Cat. #25300-054), resuspended in serum-containing growth medium and counted using a Cellometer and volume adjusted to a concentration of 0.6×10^6 cells/mL. Cells were plated into 384-well clear bottom tissue culture plates (BD Cat. #353962) at 50 μL/well, for a density of 30,000 cells/well using a MULTIDROP® and incubated for 16-18 hours (overnight) at 37° C. with 5% CO2. The next day, cells were serum starved in 30 μL of F-12 media without any serum or antibiotics for 2 hours at 37° C.Test compounds were 3-fold, 11-point serially diluted in DMSO in a REMP assay plate (Matrix Cat. #4307) by Tecan and 5 μL was transferred into an ECHO source plate (Labcyte Cat. #LC-0200). Cells were then stimulated with 50 nL of compound dilutions using ECHO liquid handler for 7 minutes at 37° C. Compounds ranged from final assay concentrations of 33.33 μM to 0.56 nM.The media was then dumped and cells lysed with 20 μL of 1× Lysis buffer from the AlphaScreen SureFire Phospho-ERK 1/2 Kit (Perkin Elmer Cat. #6760617M). The lysis buffer was diluted 5-fold with water before use. The plate was agitated on a shaker for 10 minutes after which 2 μL was transferred into a 384-well white proxiplate (Perkin Elmer Cat. #6008289). The SureFire assay reagent mix was prepared by mixing 60 parts Reaction Buffer, 10 parts Activation Buffer, 1 part Donor Beads, 1 part Acceptor Beads (Perkin Elmer Cat. #TGRES10K). 3.5 μL/well of this reagent mix was manually added to the proxiplate with a multichannel pipettor. Plates were spun down at 1000 rpm for 2 minutes, followed by light-protected incubation at room temperature for 2 hours. The plates were read on the Alpha-technology compatible Envision multilabel plate reader using AlphaScreen protocol according to manufacturer's specifications. […]. In kind it is cell-based.

With `O=C(O)CO[C@H]1C[C@@H](c2ccc(-c3cc(Oc4ccc(F)cc4)cc(F)c3F)cc2)C1`, the EC50 was 0.59 µM. Then `O=C(O)CO[C@H]1C[C@@H](c2ccc(-c3ccccc3Oc3ccccc3)cc2)C1`, with 1.46 µM; and `Cc1nc(C)c(-c2ccc([C@H]3C[C@@H](OCC(=O)O)C3)cc2)s1`, with 3.46 µM. As to `CC(C)Oc1cc(-c2ccc([C@H]3C[C@@H](OCC(=O)O)C3)cc2)c(F)cn1`, the EC50 worked out at 2.07 µM.

The record behind these values is ChEMBL document CHEMBL5725668, “Cyclobutane containing carboxylic acid GPR120 modulators” (2018).
